Laboratory results taken from the NIST ThermoML archive (doi:10.1021/acs.jced.6b00350).

Details: Liquid, Hot wire method

FC(F)CC(F)(F)F [1,1,1,3,3-pentafluoropropane]
Details | thermal conductivity [W/m/K]
342.09 K, 58399 kPa | 0.1006
342.1 K, 58406 kPa | 0.1005
342.12 K, 69235 kPa | 0.1042
342.12 K, 69238 kPa | 0.104
342.21 K, 31695 kPa | 0.09091
342.23 K, 24443 kPa | 0.08756
342.23 K, 31701 kPa | 0.09082
342.24 K, 18254 kPa | 0.08456
342.24 K, 18263 kPa | 0.08459
342.24 K, 24457 kPa | 0.08773
342.25 K, 8211 kPa | 0.079
342.25 K, 8213 kPa | 0.0788
342.25 K, 12847 kPa | 0.08139
342.26 K, 12846 kPa | 0.08139
342.27 K, 4048 kPa | 0.07633
342.27 K, 39655 kPa | 0.09411
342.28 K, 795 kPa | 0.07417
342.28 K, 4064 kPa | 0.07591
342.28 K, 39659 kPa | 0.09393
342.29 K, 784 kPa | 0.07414
342.49 K, 48484 kPa | 0.09716
342.51 K, 48493 kPa | 0.09719
342.51 K, 58384 kPa | 0.1004
342.53 K, 58390 kPa | 0.1005
342.53 K, 69205 kPa | 0.104
342.54 K, 69218 kPa | 0.1038
342.7 K, 24435 kPa | 0.08753
342.71 K, 18288 kPa | 0.08467
342.71 K, 24437 kPa | 0.08761
342.72 K, 31697 kPa | 0.09082
342.72 K, 31698 kPa | 0.09091
342.73 K, 18277 kPa | 0.08453
342.74 K, 12836 kPa | 0.08165
342.75 K, 12854 kPa | 0.08161
342.75 K, 39640 kPa | 0.09416
342.75 K, 39649 kPa | 0.09419
342.77 K, 8198 kPa | 0.07878
342.77 K, 8214 kPa | 0.07886
342.8 K, 4060 kPa | 0.07628
342.81 K, 4048 kPa | 0.07623
342.82 K, 778 kPa | 0.074
342.83 K, 779 kPa | 0.07358
342.98 K, 48479 kPa | 0.09746
342.99 K, 48476 kPa | 0.09717
342.99 K, 58371 kPa | 0.1007
342.99 K, 69188 kPa | 0.1043
342.99 K, 69203 kPa | 0.1043
343 K, 58374 kPa | 0.1007
343.21 K, 24431 kPa | 0.0874
343.22 K, 24434 kPa | 0.0876
343.25 K, 18297 kPa | 0.0846
343.25 K, 18305 kPa | 0.08481
343.25 K, 31683 kPa | 0.09097
343.25 K, 31692 kPa | 0.09092
343.27 K, 39640 kPa | 0.09411
343.28 K, 39648 kPa | 0.09409
343.29 K, 12856 kPa | 0.08212
343.3 K, 12844 kPa | 0.08186
343.33 K, 8193 kPa | 0.07913
343.33 K, 8208 kPa | 0.07905
343.38 K, 4043 kPa | 0.07572
343.39 K, 4045 kPa | 0.07592
343.42 K, 777 kPa | 0.07373
343.43 K, 791 kPa | 0.07347
343.48 K, 69162 kPa | 0.1043
343.49 K, 69172 kPa | 0.1045
343.5 K, 48465 kPa | 0.09758
343.5 K, 58358 kPa | 0.1009
343.5 K, 58363 kPa | 0.1009
343.51 K, 48479 kPa | 0.0974
